Test results as given in patent publication US11266645B2, “Methods for treating lymphoma” (Alexion Pharmaceuticals, Inc., priority 2018, dated 2022).

Tests used:
[1] = test system: Follicular lymphoma (FL) cell lines SU-DHL6, DOHH2, WSU-FSCCL; assay: FL cell line assays (CellTiter Glo, Edu, caspase 3, immunoblot, phosphoflow); assay type: cell-based, human
Method: CellTiter Glo, Edu and caspase 3 assays were used to examine the effects of cerdulatinib alone and in combination with venetoclax. Percent inhibition was determined relative to vehicle control. Edu incorporation and caspase 3 cleavage were performed using FACS-based assays and CellTiter Glo in a 96-well black plate.
Follicular lymphoma (FL) cell lines SU-DHL6, DOHH2, or WSU-FSCCL were treated with cerdulatinib in the presence or absence of venetoclax at the indicated concentrations for 24-72 hours and analyzed by Edu, CellTiter-Glo, Annexin V/PI, and CellTiter-Glo).
Whole cell lysates were subjected to immunoblotting on 12% gels and probed with the indicated antibodies using established protocols. Phosphoflow cytometry was performed on an LSRII following cell fixing in 4% PFA and permeabilzation with 50% methanol. Phospho-antibody staining was performed for 1 hour at room temperature.

[2] = test system: JAK2-dependent STAT5 phosphorylation; assay: Whole blood GM-CSF stimulation, STAT5 phosphorylation; assay type: cell-based, human; conditions: patient samples
Method: For PD assessments, serial blood samples were drawn into lithium-heparin vacutainer tubes on Day 1 prior to dosing and again at 0.5, 1, 2, and 4 hours post-dose; on Day 8 at pre-dose and 2 hours post-dose; and Day 28 prior to dosing. Multiple assays were performed using the Day 1 and Day 8 PD samples. SYK-mediated BCR signaling in whole blood was measured prior to and post-dosing by stimulating 100 μL whole blood with 2 μL of anti-human IgD (IgG fraction) and 10 μg anti-human IgM for 10 minutes at 37° C., measuring the induction of pSYK Y525/526, pAKT S473, and pERK Y204. […] With blood samples from the CLL patients only, tumor cell surface expression of CD5, CD69, CD86, and CXCR4 pre-dose on days 1 and 28 were monitored. […] For each assay, data were collected using an LSR II instrument (BD Bioscience, San Jose, Calif.) and analyzed using Flowjo software (Flowjo LLC, Ashland, Oreg.). […]
The potency and selectivity for target inhibition following oral dosing in patients using a variety of whole blood assays was measured.

[3] = Cerdulatinib plasma concentration in patients (LC-MS/MS); assay type: in vivo, human
Method: Blood samples were collected on K2EDTA for the determination of total cerdulatinib plasma concentrations on day 1 prior to dosing and at 0.5, 1, 2, 3, 4, 6, 8, and 12 hours post-dose; on Day 8 at pre-dose and 2 hours post-dose; on Day 15 pre-dose; and on Day 28 (end of the first treatment cycle) at pre-dose and at 0.5, 1, 2, 3, 4, 6, 8, and 12 hours post-dose. A liquid chromatography-tandem mass spectrometry (LC-MS/MS) method was developed and validated by Alturas Analytics, Inc. (Moscow, Id.) for the determination of cerdulatinib concentration in human plasma. […] J Pharmacol Exp Ther, 2014. 351(3): p. 538-48. Chromatographic separations were performed over a Phenomenex Synergi Polar-RP column (50×2.0 mm, 4 μm) (Phenomenex, Torrance, Calif., USA). MS/MS analysis was performed using a Sciex API-4000 triple quadrupole mass spectrometer with a TurboSpray ion source (Applied Biosystems, Foster City, Calif., USA). The peak area of the m/z 394→360 cerdulatinib product ion was measured against the peak area of the m/z 397→363 internal standard product ion. Intra-assay precision (% CV) and accuracy (% bias) were within 0.8% to 4.5% and −10.1% to 7.8%, respectively, and inter-assay precision (% CV) and accuracy (% bias) were 2.0% to 3.8% and −7.3% to 6.0%, respectively.

Primary CLL cells = Primary CLL cells with IL-4/CD40L, immunoblotting and annexin V/PI viability; assay type: cell-based, human
Method: Combination studies were performed with 10 or 100 nM venetoclax or 300 and 1000 nM S63846. Cell viability was assessed by annexin V/PI using flow cytometry and changes in protein expression by immunoblotting.

CCS(=O)(=O)N1CCN(c2ccc(Nc3ncc(C(N)=O)c(NC4CC4)n3)cc2)CC1 [cerdulatinib, 4-(cyclopropylamino)-2-((4-(4-(ethylsulfonyl)piperazin-1-yl)phenyl)amino)pyrimidine-5-carboxamide]
basal expression of phospho (p)AKT and pERK, anti-IgM and anti-IgG mediated signaling ([1]; FL cell lines): inhibit
Bcl-2 expression ([1]; FL lines): minimal impact
Bim RNA level ([1]; WSU and DHL6 cells): increased
Mcl-1 RNA levels ([1]; cerdulatinib alone): remained unchanged
Mcl-1 expression ([1]; most pronounced in WSU-FSCCL cells): down modulation
inhibition of GM-CSF induced JAK2-dependent STAT5 phosphorylation [2]: sparing JAK2
SSCmin achieved ([3]; CLL/SLL patients, lower dose cohorts): 0.004 to 0.325 µM
SSCmin exposures at which tumor responses were more apparent ([3]; FL patients): 0.729 to 1.219 µM
SSCmin to SSCmax cerdulatinib serum concentrations ([3]; human, in vivo): 0.32 to 0.38 µM
SSCmin that was well tolerated ([3]; phase 1 dose-escalation): up to 1 μM
average SSCmin ([3]; phase 2 dose 30 mg BID): ~0.8 µM
IL-4/CD40L induced Mcl-1 and Bcl-XL expression (Primary CLL cells; 1 μM): significantly reduced
inhibition of Mcl-1 and Bcl-XL compared to the other kinase inhibitors (Primary CLL cells; 1 μM): more robust inhibition
synergy with venetoclax to induce apoptosis (Primary CLL cells; CLL cells): synergized
Bim induction compared to idelalisib and ibrutinib (Primary CLL cells; equivalent drug concentrations): induced to greater levels
